Experimental data published in ChEMBL document CHEMBL4842364 (J Med Chem, 2021).
The source made the active and inactive calls. The rule behind the calls is not given here.

How the values were obtained:
NCI-H23 = test: Antiproliferative activity against human NCI-H23 cells assessed as reduction in cell viability after 4 days by CellTiter-Glo assay; details: Homo sapiens, NCI-H23, 96 h
[1] = Octanol/buffer distribution coefficient, logD of the compound at pH 7.4; format: physicochemical
[2] = Intrinsic clearance in human microsomes; format: ADME, Microsome
[3] = Intrinsic clearance in mouse microsomes; format: ADME, Microsome
[4] = AUC(0 to 24 hrs) in mouse at 60 mg/kg, po; format: ADME, organism-based; set-up: time < 24 hr, route oral, dose 60 mg/kg; details: in vivo
[5] = AUC(0 to 24 hrs) in rat at 60 mg/kg, po; format: ADME, organism-based; set-up: time < 24 hr, route oral, dose 60 mg/kg; details: in vivo
A-427 [6] = test: Antitumor activity against human A-427 cells xenografted in SCID mouse assessed as reduction in tumor growth at 80 mg/kg, po administered once daily for 28 days and measured twice per weeks; format: functional, organism-based; details: time 28.0 day
[7] = AUC in mouse plasma at 80 mg/kg, po administered once daily for 28 days; format: ADME, organism-based; set-up: time 28 day, dose 80 mg/kg
A-427 [8] = test: Antiproliferative activity against human A-427 cells assessed as reduction in cell viability after 3 days by CellTiter-Glo assay; format: functional, cell-based; details: A-427, 72 h
Wee1-like protein kinase = Wee1-like protein kinase (Homo sapiens, UniProt P30291)
Chain of Wee1-like protein kinase (P30291 whole entry): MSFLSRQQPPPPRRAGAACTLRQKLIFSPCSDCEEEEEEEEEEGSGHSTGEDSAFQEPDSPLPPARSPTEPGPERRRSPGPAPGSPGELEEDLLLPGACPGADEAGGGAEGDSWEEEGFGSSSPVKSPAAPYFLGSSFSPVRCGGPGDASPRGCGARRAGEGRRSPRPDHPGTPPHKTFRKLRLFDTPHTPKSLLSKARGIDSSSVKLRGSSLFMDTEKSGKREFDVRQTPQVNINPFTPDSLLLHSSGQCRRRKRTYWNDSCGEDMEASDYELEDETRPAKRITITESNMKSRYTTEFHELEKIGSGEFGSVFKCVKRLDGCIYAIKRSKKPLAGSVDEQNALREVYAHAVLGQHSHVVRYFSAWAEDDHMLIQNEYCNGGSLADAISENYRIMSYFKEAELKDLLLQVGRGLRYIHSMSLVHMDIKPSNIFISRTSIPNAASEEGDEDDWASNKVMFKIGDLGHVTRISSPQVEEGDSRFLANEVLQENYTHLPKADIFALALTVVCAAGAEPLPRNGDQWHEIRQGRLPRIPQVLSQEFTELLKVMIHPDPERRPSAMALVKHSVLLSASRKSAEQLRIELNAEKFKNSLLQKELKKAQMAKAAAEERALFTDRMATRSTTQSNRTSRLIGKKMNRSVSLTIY
Description: Displacement of Alexa Fluor labelled kinase tracer178 from WEE1 (unknown origin) incubated for 60 mins by FRET assay

[9] = AUC(0 to 24 hrs) in mouse at 10 mg/kg, po; format: ADME, organism-based; set-up: time < 24 hr, route oral, dose 10 mg/kg; details: in vivo
[10] = Plasma protein binding in human; format: ADME, cell-free; details: read-out: PPB (converted)
[11] = Plasma protein binding in mouse; format: ADME, cell-free; details: read-out: PPB (converted)
[12] = molecular target: Serine/threonine-protein kinase PLK2 (Homo sapiens, UniProt Q9NYY3); test: Inhibition of PLK2 (unknown origin) at 1 uM relative to control
Chain of Serine/threonine-protein kinase PLK2 (Q9NYY3 whole entry, looked up): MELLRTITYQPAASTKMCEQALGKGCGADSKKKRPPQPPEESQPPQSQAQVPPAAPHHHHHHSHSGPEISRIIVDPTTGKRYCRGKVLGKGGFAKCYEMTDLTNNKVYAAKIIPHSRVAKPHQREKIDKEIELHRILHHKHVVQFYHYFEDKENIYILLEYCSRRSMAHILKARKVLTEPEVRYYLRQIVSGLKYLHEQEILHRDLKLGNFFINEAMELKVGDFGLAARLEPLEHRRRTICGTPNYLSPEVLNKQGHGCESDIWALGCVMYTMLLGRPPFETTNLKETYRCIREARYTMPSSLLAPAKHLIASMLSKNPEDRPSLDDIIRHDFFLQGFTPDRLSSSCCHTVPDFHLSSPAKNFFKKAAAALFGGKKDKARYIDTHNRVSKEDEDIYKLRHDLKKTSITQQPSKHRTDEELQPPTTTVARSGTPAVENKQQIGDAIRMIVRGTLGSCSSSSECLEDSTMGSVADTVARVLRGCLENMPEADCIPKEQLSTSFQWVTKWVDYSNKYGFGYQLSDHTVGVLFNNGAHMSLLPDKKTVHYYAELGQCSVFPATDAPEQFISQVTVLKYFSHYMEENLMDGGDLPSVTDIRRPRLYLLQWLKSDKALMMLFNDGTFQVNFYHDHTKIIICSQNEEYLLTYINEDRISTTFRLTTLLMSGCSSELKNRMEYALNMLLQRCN

[13] = molecular target: T1, Mitogen-activated protein kinase kinase kinase 19 (Homo sapiens) (UniProt Q56UN5); test: Inhibition of YSK4 (unknown origin) at 1 uM relative to control
T1 sequence (whole entry): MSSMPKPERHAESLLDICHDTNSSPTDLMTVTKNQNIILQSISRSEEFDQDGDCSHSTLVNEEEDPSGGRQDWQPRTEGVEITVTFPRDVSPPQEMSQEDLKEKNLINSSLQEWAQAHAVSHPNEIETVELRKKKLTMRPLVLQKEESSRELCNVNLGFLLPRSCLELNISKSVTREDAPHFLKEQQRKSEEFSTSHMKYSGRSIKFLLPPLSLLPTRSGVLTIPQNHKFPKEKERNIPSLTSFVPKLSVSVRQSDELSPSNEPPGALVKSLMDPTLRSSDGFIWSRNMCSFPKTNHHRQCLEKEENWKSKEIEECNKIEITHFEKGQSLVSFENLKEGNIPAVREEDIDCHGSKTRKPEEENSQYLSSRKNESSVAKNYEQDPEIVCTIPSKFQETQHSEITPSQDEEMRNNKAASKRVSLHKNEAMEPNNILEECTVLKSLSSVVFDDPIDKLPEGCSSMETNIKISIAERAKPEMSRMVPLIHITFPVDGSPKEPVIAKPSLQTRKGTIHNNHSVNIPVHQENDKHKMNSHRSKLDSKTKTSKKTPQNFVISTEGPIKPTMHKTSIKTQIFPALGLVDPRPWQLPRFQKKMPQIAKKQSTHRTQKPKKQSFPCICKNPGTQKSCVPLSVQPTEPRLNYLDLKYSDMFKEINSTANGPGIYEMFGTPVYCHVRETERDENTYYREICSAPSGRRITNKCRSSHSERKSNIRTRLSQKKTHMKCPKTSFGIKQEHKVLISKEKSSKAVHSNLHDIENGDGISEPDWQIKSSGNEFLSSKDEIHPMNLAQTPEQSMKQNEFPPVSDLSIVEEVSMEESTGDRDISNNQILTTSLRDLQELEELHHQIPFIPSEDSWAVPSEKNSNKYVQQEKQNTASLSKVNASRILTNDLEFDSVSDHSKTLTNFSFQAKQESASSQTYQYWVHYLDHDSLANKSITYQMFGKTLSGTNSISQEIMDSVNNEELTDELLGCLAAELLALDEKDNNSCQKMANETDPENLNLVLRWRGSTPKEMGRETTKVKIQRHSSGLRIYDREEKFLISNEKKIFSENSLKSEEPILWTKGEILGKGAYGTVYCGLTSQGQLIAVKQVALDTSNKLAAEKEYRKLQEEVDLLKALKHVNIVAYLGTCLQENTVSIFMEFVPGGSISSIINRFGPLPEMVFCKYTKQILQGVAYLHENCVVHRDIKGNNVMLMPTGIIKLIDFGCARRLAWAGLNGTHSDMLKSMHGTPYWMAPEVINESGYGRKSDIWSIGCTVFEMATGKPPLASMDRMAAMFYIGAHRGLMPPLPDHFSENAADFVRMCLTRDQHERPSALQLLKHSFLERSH

[14] = molecular target: Epidermal growth factor receptor (Homo sapiens) (UniProt P00533); test: Inhibition of EGFR (unknown origin) at 1 uM relative to control
Chain of Epidermal growth factor receptor (Homo sapiens) (P00533 whole entry): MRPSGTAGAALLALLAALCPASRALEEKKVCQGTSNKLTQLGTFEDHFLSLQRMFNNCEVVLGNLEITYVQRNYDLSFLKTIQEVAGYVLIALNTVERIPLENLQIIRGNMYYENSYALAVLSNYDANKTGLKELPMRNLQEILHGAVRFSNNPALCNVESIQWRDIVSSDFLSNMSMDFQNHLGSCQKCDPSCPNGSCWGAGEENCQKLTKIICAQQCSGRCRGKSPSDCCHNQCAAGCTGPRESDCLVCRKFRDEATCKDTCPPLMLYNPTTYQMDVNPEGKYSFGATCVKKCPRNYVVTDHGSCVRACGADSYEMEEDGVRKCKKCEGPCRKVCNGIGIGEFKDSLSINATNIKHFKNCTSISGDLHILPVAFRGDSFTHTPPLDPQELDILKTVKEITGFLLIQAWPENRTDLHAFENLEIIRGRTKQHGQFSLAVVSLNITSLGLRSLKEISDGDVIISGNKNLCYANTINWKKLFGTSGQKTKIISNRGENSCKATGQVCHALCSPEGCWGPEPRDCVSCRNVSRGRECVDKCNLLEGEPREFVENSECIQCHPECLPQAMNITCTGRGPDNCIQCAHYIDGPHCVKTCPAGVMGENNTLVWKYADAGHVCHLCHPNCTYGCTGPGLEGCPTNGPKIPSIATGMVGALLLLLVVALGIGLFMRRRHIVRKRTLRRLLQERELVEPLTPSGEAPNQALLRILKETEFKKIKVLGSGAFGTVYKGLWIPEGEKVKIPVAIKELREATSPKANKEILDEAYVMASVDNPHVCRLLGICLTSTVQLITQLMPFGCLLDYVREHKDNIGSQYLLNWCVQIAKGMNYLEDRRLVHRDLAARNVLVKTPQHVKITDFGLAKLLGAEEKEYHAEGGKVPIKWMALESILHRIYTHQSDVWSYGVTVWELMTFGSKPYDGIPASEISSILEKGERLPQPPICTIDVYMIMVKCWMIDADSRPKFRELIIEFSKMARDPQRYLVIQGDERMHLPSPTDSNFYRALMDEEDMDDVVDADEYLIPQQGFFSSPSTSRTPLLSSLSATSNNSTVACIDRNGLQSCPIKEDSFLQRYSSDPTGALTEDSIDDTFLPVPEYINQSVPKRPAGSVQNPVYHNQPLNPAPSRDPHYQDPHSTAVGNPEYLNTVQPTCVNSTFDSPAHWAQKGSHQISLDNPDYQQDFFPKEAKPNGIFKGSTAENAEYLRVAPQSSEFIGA

[15] = molecular target: Serine/threonine-protein kinase PLK3 (Homo sapiens, UniProt Q9H4B4); test: Inhibition of PLK3 (unknown origin) at 1 uM relative to control
Chain of Serine/threonine-protein kinase PLK3 (Q9H4B4 whole entry, looked up): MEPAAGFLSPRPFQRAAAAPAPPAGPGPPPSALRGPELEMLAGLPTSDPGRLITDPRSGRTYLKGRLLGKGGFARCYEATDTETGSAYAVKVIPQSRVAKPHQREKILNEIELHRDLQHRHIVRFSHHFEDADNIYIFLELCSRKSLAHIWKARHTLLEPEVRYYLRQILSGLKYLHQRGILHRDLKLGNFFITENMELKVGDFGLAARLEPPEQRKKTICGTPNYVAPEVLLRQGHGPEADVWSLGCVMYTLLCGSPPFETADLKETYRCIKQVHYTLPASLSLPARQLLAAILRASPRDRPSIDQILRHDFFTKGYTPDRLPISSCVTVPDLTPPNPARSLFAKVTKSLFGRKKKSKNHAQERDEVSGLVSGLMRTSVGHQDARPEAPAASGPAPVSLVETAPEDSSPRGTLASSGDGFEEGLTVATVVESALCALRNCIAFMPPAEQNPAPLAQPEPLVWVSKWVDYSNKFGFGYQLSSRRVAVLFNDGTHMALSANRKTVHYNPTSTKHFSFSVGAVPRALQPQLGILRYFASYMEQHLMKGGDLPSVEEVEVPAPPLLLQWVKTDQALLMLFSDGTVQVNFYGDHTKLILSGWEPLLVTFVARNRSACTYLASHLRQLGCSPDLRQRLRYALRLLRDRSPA

[16] = molecular target: T2, Cyclin-G-associated kinase (Homo sapiens) (UniProt O14976); test: Inhibition of GAK (unknown origin) at 1 uM relative to control
T2 sequence (whole entry): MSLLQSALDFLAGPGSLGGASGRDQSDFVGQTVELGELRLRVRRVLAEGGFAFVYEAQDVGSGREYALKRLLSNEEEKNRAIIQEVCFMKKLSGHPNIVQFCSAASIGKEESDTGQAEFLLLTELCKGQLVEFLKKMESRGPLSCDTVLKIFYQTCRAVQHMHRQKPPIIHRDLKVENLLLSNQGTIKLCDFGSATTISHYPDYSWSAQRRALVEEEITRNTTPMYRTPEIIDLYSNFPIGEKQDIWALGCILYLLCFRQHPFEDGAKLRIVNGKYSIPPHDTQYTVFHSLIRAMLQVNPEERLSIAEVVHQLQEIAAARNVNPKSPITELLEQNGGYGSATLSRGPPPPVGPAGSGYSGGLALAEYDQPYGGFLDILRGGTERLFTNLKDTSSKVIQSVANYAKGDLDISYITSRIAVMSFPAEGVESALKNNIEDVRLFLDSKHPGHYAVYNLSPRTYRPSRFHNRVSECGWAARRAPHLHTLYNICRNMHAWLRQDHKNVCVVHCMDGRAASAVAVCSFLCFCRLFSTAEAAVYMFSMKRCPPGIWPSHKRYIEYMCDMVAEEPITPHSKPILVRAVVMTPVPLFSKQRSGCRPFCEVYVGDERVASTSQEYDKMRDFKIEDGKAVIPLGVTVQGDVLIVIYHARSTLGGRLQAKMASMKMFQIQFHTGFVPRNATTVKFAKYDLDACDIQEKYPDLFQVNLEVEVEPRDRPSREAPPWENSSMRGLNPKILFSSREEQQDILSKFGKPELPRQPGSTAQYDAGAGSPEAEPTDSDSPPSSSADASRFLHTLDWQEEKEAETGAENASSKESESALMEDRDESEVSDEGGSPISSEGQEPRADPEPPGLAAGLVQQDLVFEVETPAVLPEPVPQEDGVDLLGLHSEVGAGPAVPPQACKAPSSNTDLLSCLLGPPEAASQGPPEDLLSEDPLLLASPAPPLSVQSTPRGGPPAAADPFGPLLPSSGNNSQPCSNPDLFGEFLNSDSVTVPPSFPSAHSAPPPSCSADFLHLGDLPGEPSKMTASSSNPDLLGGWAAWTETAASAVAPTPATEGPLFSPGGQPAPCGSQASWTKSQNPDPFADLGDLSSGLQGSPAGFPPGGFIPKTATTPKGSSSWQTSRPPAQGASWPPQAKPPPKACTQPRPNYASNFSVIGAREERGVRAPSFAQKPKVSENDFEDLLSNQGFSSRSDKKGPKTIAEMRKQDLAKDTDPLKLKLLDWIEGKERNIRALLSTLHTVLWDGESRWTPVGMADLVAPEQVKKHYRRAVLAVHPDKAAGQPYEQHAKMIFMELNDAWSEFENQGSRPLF

Cytochrome P450 3A4 = Cytochrome P450 3A4 (Homo sapiens, UniProt P08684); test: Inhibition of CYP3A4 (unknown origin); format: ADME
Chain of Cytochrome P450 3A4 (P08684 whole entry): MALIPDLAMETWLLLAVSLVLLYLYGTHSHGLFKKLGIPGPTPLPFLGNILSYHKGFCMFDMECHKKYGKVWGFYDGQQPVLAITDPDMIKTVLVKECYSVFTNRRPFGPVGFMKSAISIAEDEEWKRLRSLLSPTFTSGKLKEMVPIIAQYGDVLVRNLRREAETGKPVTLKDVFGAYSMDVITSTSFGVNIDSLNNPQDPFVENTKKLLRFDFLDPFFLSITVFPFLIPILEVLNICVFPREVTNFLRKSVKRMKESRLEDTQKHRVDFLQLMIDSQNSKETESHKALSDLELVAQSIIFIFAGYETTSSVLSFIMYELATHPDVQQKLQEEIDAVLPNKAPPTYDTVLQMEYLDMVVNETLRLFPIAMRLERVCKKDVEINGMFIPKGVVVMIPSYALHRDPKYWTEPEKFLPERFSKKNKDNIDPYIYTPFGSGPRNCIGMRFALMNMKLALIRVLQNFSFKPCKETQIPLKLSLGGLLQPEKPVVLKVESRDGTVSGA

[17] = Permeability of the compound across apical to basolateral side in human Caco-2 cells; format: ADME, cell-based; details: read-out: permeability
[18] = Permeability of the compound across basolateral to apical side in human Caco-2 cells; format: ADME, cell-based; details: read-out: permeability
[19] = Efflux ratio of permeability from basolateral to apical side over apical to basolateral side in human Caco-2 cells; format: ADME, cell-based

| Compound | IC50 (NCI-H23) | logD [1] | CLint scaled [2] | CLint scaled [3] | AUC(0-t) at 24 h [4] | AUC(0-t) at 24 h [5] | IC50 (Wee1-like protein kinase) | AUC(0-t) at 24 h [9] | fraction unbound [10] | other results |
| --- | --- | --- | --- | --- | --- | --- | --- | --- | --- | --- |
| C=CCn1c(=O)c2cnc(Nc3ccc(N4CCN(C)CC4)cc3)nc2n1-c1ccc2c(n1)[C@](C)(O)CCC2 | 0.177 µM | 2.6 | 18 mL/min/kg | 66 mL/min/kg | 54 µM·h | 9.4 µM·h | 0.0037 µM | – | – | Activity (A-427 [6]): Active; AUC at 672 h [7]: 83 µM·h; IC50 (A-427 [8]): 0.155 µM |
| C=CCn1c(=O)c2cnc(Nc3ccc4c(c3)CN(C)CC43CC3)nc2n1-c1cccc(C(C)(C)O)n1 | – | 3.1 | – | 1060 mL/min/kg | – | – | – | 0.7 µM·h | – | – |
| C=CCn1c(=O)c2cnc(Nc3ccc4c(c3)CN(C)CC4)nc2n1-c1cccc(C(C)(C)O)n1 | 0.064 µM | 2.4 | – | 603 mL/min/kg | – | – | 0.0026 µM | 1 µM·h | – | – |
| C=CCn1c(=O)c2cnc(Nc3ccc4c(c3)CNCC4)nc2n1-c1cccc(C(C)(C)O)n1 | 0.105 µM | 1.3 | – | 170 mL/min/kg | 2.9 µM·h | – | – | 0.2 µM·h | – | – |
| C=CCn1c(=O)c2cnc(Nc3ccc(N4CCN(C)CC4)cc3)nc2n1-c1ccc2c(n1)[C@](C)(O)CC2 | 0.317 µM | 2 | 20 mL/min/kg | < 38 mL/min/kg | 27 µM·h | 35 µM·h | 0.0048 µM | – | 0.47 | fraction unbound [11]: 0.27; inhibition [12]: > 90%; inhibition [13]: > 90%; inhibition [14]: > 90%; inhibition [15]: 75%; inhibition [16]: 75% |
| Cc1cn(-c2c(Cl)cccc2Cl)c(=O)c2cnc(Nc3ccc(N4CCN(C)CC4)cc3)nc12 | 0.226 µM | 3.4 | 39 mL/min/kg | – | – | – | 0.002 µM | – | 0.027 | IC50 (Cytochrome P450 3A4): 4.5 µM; Papp A→B [17]: 1.5 ×10⁻⁶ cm/s; Papp B→A [18]: 1.8 ×10⁻⁶ cm/s; efflux ratio [19]: 1.1 |
| C=CCn1c(=O)c2cnc(Nc3ccc(N4CCN(C)CC4)cc3)nc2n1-c1cccc(C(C)(C)O)n1 [ADAVOSERTIB] | 0.122 µM | 2.2 | 34 mL/min/kg | – | 22 µM·h | – | – | – | 0.361 | Papp A→B [17]: 3.4 ×10⁻⁶ cm/s; Papp B→A [18]: 42 ×10⁻⁶ cm/s; AUC ([9]; 24 h): 0.8 µM·h; Activity (A-427 [6]): Active; AUC at 672 h [7]: 44 µM·h; IC50 (A-427 [8]): 0.078 µM |
| C=CCn1c(=O)c2cnc(Nc3ccc(N4CCN(C)CC4)cc3)nc2n1-c1ccc2c(n1)C(O)(C(F)(F)F)CC2 (single isomer, unassigned) | 0.185 µM | 2.8 | 71 mL/min/kg | 126 mL/min/kg | 33 µM·h | 37 µM·h | 0.0036 µM | – | – | – |
